{
  "source": "patent US20140045189A1",
  "about": "(priority 2009, published 2014)",
  "key": {"Salmonella Typhimurium": {"system": "Salmonella Typhimurium", "settings": "30 min, TSA-Y, control […]10^9 CFU/ml", "protocol": "(§1) Listeria monocytogenes EGDe (1/2a, internal number 2964) is used as a model organism for Gram-positive bacteria and as a DNA quantification standard for real-time PCR. Salmonella enterica serovar Typhimurium (NCTC 12023) is used as a model organism for Gram-negative bacteria and as a DNA quantification standard for real-time PCR. The bacteria are maintained at −80° C. using MicroBank™ technology (Pro-Lab Diagnostics, Richmont Hill, Canada) and are part of the collection of bacterial strains at the Institute of Milk Hygiene, Milk Technology and Food Science, University of Veterinary Medicine, Vienna, Austria. All bacterial strains are grown overnight in tryptone soya broth with 0.6% (w/v) yeast extract (TSB-Y; Oxoid, Hampshire, United Kingdom) at the respective optimal growth temperatures (37° C., L. monocytogenes and 42° C., S. Typhimurium).\n(§2) The influence of different MgCl2 concentrations on the viability of Listeria monocytogenes and Salmonella Typhimurium is investigated. The target organisms are incubated for 30 min with 3 different concentrations of MgCl2 (1 M, 2 M and 3 M) and at 3 different temperatures (35° C., 38° C. and 45° C.) and the CFUs on TSA-Y agar plates after the treatment are compared with the control sample."}, "Listeria monocytogenes": {"system": "Listeria monocytogenes", "settings": "30 min, TSA-Y, control 2.78×10^9 CFU/ml", "protocol": "as §1, §2"}},
  "note": "Like-named read-outs stand apart in the source and are kept apart here.",
  "data": [
    {"smiles": "[Cl-].[Cl-].[Mg+2]", "note": "[MgCl2, magnesium chloride]", "values": [
      {"measurement": "CFU/ml of S. Typhimurium after treatment", "setting": "Salmonella Typhimurium; 1 M MgCl2, 35° C.", "result": "1.15×10^9 CFU/ml"},
      {"measurement": "CFU/ml of S. Typhimurium after treatment", "setting": "Salmonella Typhimurium; 1 M MgCl2, 38° C.", "result": "8.33×10^8 CFU/ml"},
      {"measurement": "CFU/ml of S. Typhimurium after treatment", "setting": "Salmonella Typhimurium; 1 M MgCl2, 45° C.", "result": "4.1×10^8 CFU/ml"},
      {"measurement": "CFU/ml of S. Typhimurium after treatment", "setting": "Salmonella Typhimurium; 2 M MgCl2, 35° C.", "result": "2.3×10^8 CFU/ml"},
      {"measurement": "CFU/ml of S. Typhimurium after treatment", "setting": "Salmonella Typhimurium; 2 M MgCl2, 38° C.", "result": "1.35×10^8 CFU/ml"},
      {"measurement": "CFU/ml of S. Typhimurium after treatment", "setting": "Salmonella Typhimurium; 3 M MgCl2, 35° C.", "result": "5.75×10^7 CFU/ml"},
      {"measurement": "CFU/ml of S. Typhimurium after treatment", "setting": "Salmonella Typhimurium; 3 M MgCl2, 38° C.", "result": "2.0×10^7 CFU/ml"},
      {"measurement": "CFU/ml of L. monocytogenes after treatment", "setting": "Listeria monocytogenes; 1 M MgCl2, 35° C.", "result": "3.86×10^9 CFU/ml"},
      {"measurement": "CFU/ml of L. monocytogenes after treatment", "setting": "Listeria monocytogenes; 1 M MgCl2, 38° C.", "result": "4.06×10^9 CFU/ml"},
      {"measurement": "CFU/ml of L. monocytogenes after treatment", "setting": "Listeria monocytogenes; 1 M MgCl2, 45° C.", "result": "4.39×10^9 CFU/ml"},
      {"measurement": "CFU/ml of L. monocytogenes after treatment", "setting": "Listeria monocytogenes; 2 M MgCl2, 35° C.", "result": "3.10×10^9 CFU/ml"},
      {"measurement": "CFU/ml of L. monocytogenes after treatment", "setting": "Listeria monocytogenes; 2 M MgCl2, 38° C.", "result": "3.64×10^9 CFU/ml"},
      {"measurement": "CFU/ml of L. monocytogenes after treatment", "setting": "Listeria monocytogenes; 2 M MgCl2, 45° C.", "result": "1.68×10^9 CFU/ml"},
      {"measurement": "CFU/ml of L. monocytogenes after treatment", "setting": "Listeria monocytogenes; 3 M MgCl2, 35° C.", "result": "1.76×10^9 CFU/ml"},
      {"measurement": "CFU/ml of L. monocytogenes after treatment", "setting": "Listeria monocytogenes; 3 M MgCl2, 38° C.", "result": "8.5×10^8 CFU/ml"},
      {"measurement": "CFU/ml of L. monocytogenes after treatment", "setting": "Listeria monocytogenes; 3 M MgCl2, 45° C.", "result": "1.5×10^8 CFU/ml"}
    ]}
  ]
}
